The text below walks through data of DBAASP.

In brackets after ≈: the same amount, converted by molar mass. Several values for one entry are separate records, joined by “and”; a condition that tells them apart may be missing. Equal values may be shown once. Some results are limits rather than exact numbers.

Some test systems named below: Acinetobacter baumannii; Bacteroides fragilis; Clostridium septicum; Cutibacterium acnes; Fusobacterium nucleatum; Bacillus megaterium Bm11; Candida albicans; Citrobacter freundii; Enterococcus faecium; Escherichia coli ML-35; Escherichia coli; Klebsiella pneumoniae; Micrococcus luteus; Pseudomonas aeruginosa; Staphylococcus aureus; Staphylococcus simulans.
Common to all, as to test: ≥ marks a high value that may be exact or a test limit, other limits are often not marked, values filed in µg/mL are converted to µM
Assay [1] has as its system Bacillus subtilis CGMCC 1.3376.
The test system of assay [2] is Bacteroides fragilis ATCC 25285.
For assay [3], the system named is Batrachochytrium dendrobatidis.
The test system of assay [4] is Candida albicans ATCC 90028.
Assay [5] deals with Clostridium perfringens ATCC 10543.
Assay [6] deals with Clostridium tertium ATCC 19465.
Assay [7] concerns Cutibacterium acnes ATCC 11828.
Assay [8] relates to Enterobacter cloacae HNTCC 53001.
The test system of assay [9] is Enterococcus faecalis ATCC 29212.
Assay [10] has as its system Escherichia coli ATCC 25922.
For assay [11], the system named is Escherichia coli CGMCC 1.8732.
Assay [12] relates to Fusobacterium varium ATCC 27725.
The test system of assay [13] is Klebsiella pneumoniae CGMCC 1.1736.
In assay [14] the test system is Klebsiella pneumoniae KK3 9904.
The test system of assay [15] is Peptoniphilus asaccharolyticus ATCC 29743.
Assay [16] relates to Peptostreptococcus anaerobius.
Assay [17] has as its system Prevotella melaninogenica.
For assay [18], the system named is Proteus mirabilis ATCC 25933.
For assay [19], the system named is Pseudomonas aeruginosa ATCC 27853.
In assay [20] the test system is Pseudomonas aeruginosa CGMCC 1.2421.
Assay [21] concerns Salmonella enterica subsp. enterica serovar Typhimurium LT2.
The subject of assay [22] is Staphylococcus aureus CGMCC 1.8721.
Assay [23] deals with Staphylococcus aureus NCTC 8325.
Assay [24] deals with Staphylococcus aureus T27/9.
The test system of assay [25] is Staphylococcus aureus T58/7.
The test system of assay [26] is Staphylococcus aureus T7/5.
Assay [27] deals with Staphylococcus epidermidis CGMCC 1.4260.
Assay [28] concerns Staphylococcus epidermidis RP62A.
For assay [29], the system named is Candida albicans CIB 45437.
For assay [30], the system named is Escherichia coli ATCC 25726.
Assay [31] relates to Escherichia coli CIB 84492.
The subject of assay [32] is Staphylococcus aureus ATCC 25923.
For assay [33], the system named is Staphylococcus aureus CIB 85462.
Assay [34] deals with Salmonella enterica subsp. enterica serovar Typhimurium ATCC 14028.
The test system of assay [35] is Staphylococcus aureus 710A.
Assay [36] concerns Staphylococcus aureus LT1334.
Assay [37] has as its system Staphylococcus aureus LT1338.
For assay [38], the system named is Staphylococcus epidermidis LT1324.
For assay [39], the system named is Staphylococcus haemolyticus.
Assay [40] relates to Stenotrophomonas maltophilia.

In the case of `CC[C@H](C)[C@H](NC(=O)[C@H](C)N)C(=O)NCC(=O)N[C@@H](CO)C(=O)N[C@H](C(=O)N[C@@H](CC(C)C)C(=O)NCC(=O)N[C@@H](C)C(=O)N[C@@H](CC(C)C)C(=O)N[C@@H](C)C(=O)N[C@@H](CCCCN)C(=O)NCC(=O)N[C@@H](CC(C)C)C(=O)N1CCC[C@H]1C(=O)N[C@H](C(=O)N[C@@H](CC(C)C)C(=O)N[C@H](C(=O)N[C@@H](CO)C(=O)N[C@@H](Cc1c[nH]c2ccccc12)C(=O)N[C@H](C(=O)N[C@@H](CCCCN)C(=O)N[C@@H](CC(N)=O)C(=O)N[C@@H](CCCN=C(N)N)C(N)=O)[C@@H](C)CC)[C@@H](C)CC)[C@@H](C)O)[C@@H](C)CC` [AIGSILGALAKGLPTLISWIKNR], the MIC (commonly the least concentration at which growth counts as inhibited) against Acinetobacter baumannii is 12.5 µM (≈ 29.9 µg/mL); in [1], 3.13 µM (≈ 7.49 µg/mL); in assay [2], at least 50 µM; with Bacteroides fragilis, at least 50 µM; in [3] it was 25 µM (≈ 59.8 µg/mL); in assay [4] it was 19 µM and 12.5 µM. The MIC was at least 50 µM in assay [5]; 12.5 µM (≈ 29.9 µg/mL) against Clostridium septicum; 12.5 µM (≈ 29.9 µg/mL) in [6]; 12.5 µM (≈ 29.9 µg/mL) in [7]; 25 µM (≈ 59.8 µg/mL) against Cutibacterium acnes; 12.5 µM (≈ 29.9 µg/mL) in assay [8]. Also, the MIC is 6 µM (≈ 14.4 µg/mL) in assay [9]; 20 µM and 12.5 µM in assay [10]; 25 µM (≈ 59.8 µg/mL) in [11]; at least 50 µM in the assay with Fusobacterium nucleatum; at least 50 µM in assay [12]; 12.5 µM (≈ 29.9 µg/mL) in assay [13]. The MIC in assay [14] is at least 50 µM; in assay [15] it was at least 50 µM; in assay [16] it was 25 µM (≈ 59.8 µg/mL); in assay [17], 3 µM (≈ 7.18 µg/mL); in assay [18] it was at least 100 µM; in assay [19] it was 25 µM (≈ 59.8 µg/mL). The MIC was 12.5 µM (≈ 29.9 µg/mL) in assay [20]; at least 50 µM in assay [21]; 6.25 µM (≈ 14.9 µg/mL) in assay [22]; 3.5 µM and 6 µM in assay [23]; 5 µM (≈ 12 µg/mL) in [24]; 20 µM (≈ 47.8 µg/mL) in [25]. In addition, the MIC in assay [26] was 2.5 µM (≈ 5.98 µg/mL); in [27], 3.13 µM (≈ 7.49 µg/mL); in [28], 3 µM (≈ 7.18 µg/mL).

For `CC[C@H](C)[C@@H]1NC(=O)[C@H](C)NC(=O)[C@@H](NC(=O)[C@H](Cc2ccccc2)NC(=O)[C@@H](NC(=O)[C@@H](NC(=O)[C@@H]2CCCN2C(=O)[C@@H](NC(=O)[C@@H](NC(=O)[C@H](CCC(N)=O)NC(=O)[C@H](C)NC(=O)[C@H](C)NC(=O)[C@@H](NC(=O)[C@H](CCCN=C(N)N)NC(=O)[C@H](CC(C)C)NC(=O)[C@@H](NC(=O)[C@H](C)NC(=O)[C@@H]2CCCN2C(=O)[C@H](CC(C)C)NC(=O)[C@@H](N)Cc2ccccc2)C(C)C)C(C)C)C(C)C)C(C)C)[C@@H](C)O)C(C)C)CSSC[C@@H](C(=O)O)NC(=O)[C@H](CCCCN)NC(=O)[C@H](CCCCN)NC(=O)[C@H](CO)NC1=O` [FLPAVLRVAAQVVPTVFCAISKKC], the MIC was at least 50 µM in assay [29]; at least 48.8 µM in [30]; 50 µM (≈ 128 µg/mL) in assay [10]; 25 µM (≈ 64 µg/mL) in assay [31]; 3.12 µM (≈ 7.99 µg/mL) in [32]; 12.5 µM (≈ 32 µg/mL) in [33].

`CC[C@H](C)[C@H](NC(=O)[C@H](CCCN=C(N)N)NC(=O)[C@H](C)NC(=O)[C@H](CC(C)C)NC(=O)[C@H](CCCN=C(N)N)NC(=O)CNC(=O)[C@H](Cc1ccccc1)NC(=O)[C@@H](NC(=O)[C@H](CO)NC(=O)CNC(=O)[C@H](CC(C)C)NC(=O)CN)C(C)C)C(=O)N[C@@H](CC(C)C)C(=O)NCC(=O)N[C@@H](CCCN=C(N)N)C(=O)N[C@H](C(=O)N[C@H](C(=O)N1CCC[C@H]1C(=O)N[C@@H](CCCCN)C(=O)N[C@H](C(N)=O)C(C)C)[C@@H](C)CC)C(C)C` [GLGSVFGRLARILGRVIPKV]: the MIC in the assay on Bacillus megaterium Bm11 is 2 µM (≈ 4.22 µg/mL); against Candida albicans, above 4 µM; against Citrobacter freundii, 2 µM (≈ 4.22 µg/mL); against Enterococcus faecium it was 2 µM (≈ 4.22 µg/mL); against Escherichia coli ML-35 it was 2 µM (≈ 4.22 µg/mL); with Escherichia coli, 2.83 µM (≈ 5.96 µg/mL). Besides, the MIC worked out at 2 µM (≈ 4.22 µg/mL) with Klebsiella pneumoniae; 0.5 µM (≈ 1.05 µg/mL) against Micrococcus luteus; 8 µM (≈ 16.9 µg/mL) in [19]; 4 µM (≈ 8.43 µg/mL) against Pseudomonas aeruginosa; 8 µM (≈ 16.9 µg/mL) in assay [34]; 4 µM (≈ 8.43 µg/mL) in assay [35]. Besides, the MIC was 1.5 µM (≈ 3.16 µg/mL) in assay [36]; 3 µM (≈ 6.32 µg/mL) in assay [37]; 2 µM (≈ 4.22 µg/mL) in the assay with Staphylococcus aureus; 2 µM (≈ 4.22 µg/mL) in assay [38]; 2 µM (≈ 4.22 µg/mL) in assay [39]; 2 µM (≈ 4.22 µg/mL) in the assay with Staphylococcus simulans. This compound gave an MIC in [40] of 2 µM (≈ 4.22 µg/mL).
